PubChem BioAssay (NCI)
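Where inhibition never reached the appropriate level, the endpoint shown equals the highest concentration tested. Otherwise, values were interpolated linearly from a five-concentration, 48-hour dose response in 96-well plates. GI50 is the concentration that inhibits growth by half. TGI: total growth inhibition.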

System: P388 leukemia
Experiment: NCI tumour cell line growth inhibition, 48 h

SMILES | TGI | GI50
CN(c1ccccc1)c1c(-c2ccccc2)c(=O)oc2c1ccc1occc12 | > 100 µM | –
O.O=[Se](=O)(O)O.[NH-]C1CCCCC1[NH-].[Pt+2] (stereo not given) | 30.9 µM | 0.433 µM
COc1cccc2c1C(=O)c1c(O)c3c(c(O)c1C2=O)C[C@](O)(C(=O)CO)CC3OC1CC(N)C(OC2CCCCO2)C(C)O1 (stereo not given in full) | 0.233 µM | –
C=C1C(=O)OC2C1CC1OC2C(C)CCC/C(C)=C\CCC1(C)O (stereo not given) | 42.4 µM | –
